{"source": "BindingDB's records for doi:10.1021/jm0603116", "about": "(Infinity Pharmaceuticals, 2006)", "target": "Endoplasmin (Canis lupus familiaris, UniProt P41148)", "sequence (P41148 whole entry)": "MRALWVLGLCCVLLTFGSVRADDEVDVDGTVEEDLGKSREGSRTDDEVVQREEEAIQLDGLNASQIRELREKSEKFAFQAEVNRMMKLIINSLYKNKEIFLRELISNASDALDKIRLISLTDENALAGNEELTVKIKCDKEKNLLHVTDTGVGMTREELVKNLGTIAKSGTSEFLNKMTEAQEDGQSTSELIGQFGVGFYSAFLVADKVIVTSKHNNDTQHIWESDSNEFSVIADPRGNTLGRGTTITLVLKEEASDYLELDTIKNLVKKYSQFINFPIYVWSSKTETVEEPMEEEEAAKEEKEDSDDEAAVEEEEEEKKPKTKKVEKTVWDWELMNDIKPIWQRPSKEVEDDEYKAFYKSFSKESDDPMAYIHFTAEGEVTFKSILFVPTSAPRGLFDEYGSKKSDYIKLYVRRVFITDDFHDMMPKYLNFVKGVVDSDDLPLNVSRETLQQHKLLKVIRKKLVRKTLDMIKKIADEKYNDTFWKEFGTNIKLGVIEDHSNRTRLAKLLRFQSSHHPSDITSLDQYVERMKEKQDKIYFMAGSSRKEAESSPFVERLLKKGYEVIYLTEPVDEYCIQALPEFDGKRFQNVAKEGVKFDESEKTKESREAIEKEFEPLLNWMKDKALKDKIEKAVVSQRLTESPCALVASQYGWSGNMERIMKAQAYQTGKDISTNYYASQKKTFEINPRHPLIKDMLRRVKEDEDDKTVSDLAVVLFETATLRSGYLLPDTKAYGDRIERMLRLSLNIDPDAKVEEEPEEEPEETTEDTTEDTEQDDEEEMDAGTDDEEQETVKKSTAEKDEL", "assay": "Inhibition of BODIPY-AG binding to dog Grp94"}
{"smiles": "CO[C@H]1C=CC=C(C)C(=O)Nc2cc(O)c(N)c(c2O)C=C(C)C[C@H](OC)[C@H](O)[C@@H](C)/C=C(\\C)[C@@H]1OC(N)=O", "note": "[17-amino-17-demethoxygeldanamycin]", "values": [{"measurement": "EC50", "result": 48, "unit": "nM"}]}
